Measured values: patent publication US9302991B2, “Arylamide derivatives as TTX-S blockers” (RaQualia Pharma Inc., priority 2010, dated 2016)
pIC50: −log10 of the molar value.

The compounds below were run against T1, human Nav1.7 channels (Homo sapiens, UniProt Q15858) (assay: FRET assay, human Nav1.7 (EFS on FDSS)). Conditions: CHO cells expressing human Nav1.7, read-out: IC50 against Nav1.7.
T1 construct: expressed in transfected cells; host or cells: CHO
T1 sequence (Q15858 whole entry): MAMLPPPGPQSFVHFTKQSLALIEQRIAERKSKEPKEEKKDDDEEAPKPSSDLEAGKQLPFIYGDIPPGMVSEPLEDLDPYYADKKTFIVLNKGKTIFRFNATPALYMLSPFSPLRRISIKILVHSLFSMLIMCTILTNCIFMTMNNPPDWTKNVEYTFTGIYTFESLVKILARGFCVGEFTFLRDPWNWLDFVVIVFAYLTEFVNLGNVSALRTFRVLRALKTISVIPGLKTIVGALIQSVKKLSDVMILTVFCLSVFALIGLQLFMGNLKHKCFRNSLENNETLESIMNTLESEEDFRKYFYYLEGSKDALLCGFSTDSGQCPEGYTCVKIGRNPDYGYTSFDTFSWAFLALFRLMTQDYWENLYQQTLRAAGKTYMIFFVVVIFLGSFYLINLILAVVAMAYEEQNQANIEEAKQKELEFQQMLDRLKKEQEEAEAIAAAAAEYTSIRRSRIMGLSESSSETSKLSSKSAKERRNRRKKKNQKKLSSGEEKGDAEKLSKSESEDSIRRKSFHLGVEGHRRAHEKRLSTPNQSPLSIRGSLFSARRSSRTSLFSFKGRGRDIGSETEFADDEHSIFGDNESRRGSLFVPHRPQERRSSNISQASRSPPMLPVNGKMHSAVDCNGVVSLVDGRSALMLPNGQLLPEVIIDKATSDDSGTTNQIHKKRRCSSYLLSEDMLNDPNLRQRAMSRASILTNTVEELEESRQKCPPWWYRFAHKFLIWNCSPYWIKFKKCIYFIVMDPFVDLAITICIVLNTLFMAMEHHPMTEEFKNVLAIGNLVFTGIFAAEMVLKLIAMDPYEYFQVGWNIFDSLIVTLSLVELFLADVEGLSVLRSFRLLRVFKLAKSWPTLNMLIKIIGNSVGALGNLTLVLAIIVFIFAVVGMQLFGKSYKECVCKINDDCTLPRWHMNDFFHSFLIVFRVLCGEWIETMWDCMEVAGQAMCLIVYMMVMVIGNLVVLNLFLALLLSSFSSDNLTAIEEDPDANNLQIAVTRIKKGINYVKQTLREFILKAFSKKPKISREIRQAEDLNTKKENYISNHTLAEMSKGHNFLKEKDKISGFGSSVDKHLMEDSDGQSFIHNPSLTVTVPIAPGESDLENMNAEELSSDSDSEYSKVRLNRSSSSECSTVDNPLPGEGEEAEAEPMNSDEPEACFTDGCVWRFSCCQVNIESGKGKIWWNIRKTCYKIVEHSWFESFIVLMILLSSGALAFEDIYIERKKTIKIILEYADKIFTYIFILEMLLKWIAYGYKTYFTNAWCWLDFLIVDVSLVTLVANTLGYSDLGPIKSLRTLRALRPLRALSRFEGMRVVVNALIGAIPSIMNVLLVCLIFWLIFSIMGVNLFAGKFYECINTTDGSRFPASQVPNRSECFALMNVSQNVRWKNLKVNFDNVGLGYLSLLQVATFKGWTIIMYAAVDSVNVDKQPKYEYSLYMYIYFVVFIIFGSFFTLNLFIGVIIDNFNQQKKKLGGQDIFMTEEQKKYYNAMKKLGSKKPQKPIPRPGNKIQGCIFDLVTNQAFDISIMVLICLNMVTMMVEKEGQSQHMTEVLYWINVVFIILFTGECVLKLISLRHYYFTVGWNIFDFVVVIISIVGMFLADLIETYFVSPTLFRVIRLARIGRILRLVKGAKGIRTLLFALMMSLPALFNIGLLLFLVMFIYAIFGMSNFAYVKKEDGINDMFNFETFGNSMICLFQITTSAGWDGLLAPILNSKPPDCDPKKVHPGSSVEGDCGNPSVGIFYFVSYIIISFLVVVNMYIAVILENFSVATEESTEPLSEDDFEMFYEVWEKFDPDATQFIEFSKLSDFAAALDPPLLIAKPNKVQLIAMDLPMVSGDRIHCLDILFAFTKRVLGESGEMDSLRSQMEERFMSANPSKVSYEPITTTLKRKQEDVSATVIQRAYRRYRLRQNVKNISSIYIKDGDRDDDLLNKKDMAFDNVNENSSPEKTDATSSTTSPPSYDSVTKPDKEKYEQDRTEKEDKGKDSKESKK
Assay type: cell-based
Method in brief: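 IC50 was derived from normalized 440 nm fluorescence ratios of the EFS-evoked membrane-potential response read on FDSS. Recombinant CHO cells were sequentially dye-loaded with coumarin/oxonol FRET pair at room temperature in pH 7.4 buffer before compound addition.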
Work on Cc1cc(C(=O)NCc2cccc(C(F)(F)F)c2F)cc(NC(=O)C(C)C)n1 [Example 876, N-(2-fluoro-3-(trifluoromethyl)benzyl)-2-isobutyramido-6-methylisonicotinamide] yielded a pIC50 greater than 6.00.
With Cc1cc(C(=O)NCc2cccc(C(F)(F)F)c2Cl)cc(NC(=O)C(C)C)n1 [Example 878, N-(2-chloro-3-(trifluoromethyl)benzyl)-2-isobutyramido-6-methylisonicotinamide] the pIC50 was greater than 6.00.
Work on Cc1cc(C(=O)NCc2cccc(C(F)(F)F)c2C)cc(NC(=O)C(C)C)n1 [Example 879, 2-isobutyramido-6-methyl-N-(2-methyl-3-(trifluoromethyl)benzyl)isonicotinamide] yielded a pIC50 greater than 6.00.
For CCC(=O)Nc1cc(C(=O)NCc2ccc(OCC(F)(F)F)c(OC)c2)ccn1 [Example 882, N-(3-methoxy-4-(2,2,2-trifluoroethoxy)benzyl)-2-propionamidoisonicotinamide], the pIC50 was greater than 6.00.
In the case of COc1cc(CNC(=O)c2cc(C)nc(NC(C)=O)c2)ccc1OCC(F)(F)F [Example 884, 2-acetamido-N-(3-methoxy-4-(2,2,2-trifluoroethoxy)benzyl)-6-methylisonicotinamide], the pIC50 was greater than 6.00.
Work on COc1cc(CNC(=O)c2cc(C)nc(NC(=O)C(C)C)c2)ccc1OCC(F)(F)F [Example 885, 2-isobutyramido-N-(3-methoxy-4-(2,2,2-trifluoroethoxy)benzyl)-6-methylisonicotinamide] yielded a pIC50 greater than 6.00.
CC(C)C(=O)Nc1cc(C(=O)NCc2cnc(OCC(F)(F)F)c(Br)c2)ccn1 [Example 897, N-((5-bromo-6-(2,2,2-trifluoroethoxy)pyridin-3-yl)methyl)-2-isobutyramidoisonicotinamide] showed a pIC50 greater than 6.00.
Cc1cc(C(=O)NCc2cnc(OCC(F)(F)F)c(Br)c2)cc(NC(=O)C2CC2)n1 [Example 900, N-((5-bromo-6-(2,2,2-trifluoroethoxy)pyridin-3-yl)methyl)-2-(cyclopropanecarboxamido)-6-methylisonicotinamide] gave a pIC50 greater than 6.00.
Compound Cc1cc(C(=O)NCc2cnc(OCC(F)(F)F)c(Br)c2)cc(NC(=O)C(C)C)n1 [Example 901, N-((5-bromo-6-(2,2,2-trifluoroethoxy)pyridin-3-yl)methyl)-2-isobutyramido-6-methylisonicotinamide] has a pIC50 greater than 6.00.
CCc1cc(CNC(=O)c2ccnc(NC(=O)C(C)C)c2)cnc1OCC(F)F [Example 910, N-((6-(2,2-difluoroethoxy)-5-ethylpyridin-3-yl)methyl)-2-isobutyramidoisonicotinamide] showed a pIC50 greater than 6.00.
CCc1cc(CNC(=O)c2ccnc(NC(=O)C3CC3)n2)cnc1OCC(F)F [Example 912, 2-(cyclopropanecarboxamido)-N-((6-(2,2-difluoroethoxy)-5-ethylpyridin-3-yl)methyl)pyrimidine-4-carboxamide] gave a pIC50 greater than 6.00.
CCc1cc(CNC(=O)c2ccnc(NC(=O)C3CC3)c2)cnc1OCC(F)F [Example 931, 2-(cyclopropanecarboxamido)-N-((6-(2,2-difluoroethoxy)-5-ethylpyridin-3-yl)methyl)isonicotinamide] showed a pIC50 greater than 6.00.
Compound CCc1cc(CNC(=O)c2cc(C)nc(NC(C)=O)c2)cnc1OCC(F)F [Example 932, 2-acetamido-N-((6-(2,2-difluoroethoxy)-5-ethylpyridin-3-yl)methyl)-6-methylisonicotinamide] has a pIC50 greater than 6.00.
In the case of CCCC(=O)Nc1cc(C(=O)NCc2cnc(OCC(F)F)c(CC)c2)ccn1 [Example 933, 2-butyramido-N-((6-(2,2-difluoroethoxy)-5-ethylpyridin-3-yl)methyl)isonicotinamide], the pIC50 was greater than 6.00.
Compound CC(=O)Nc1cc(C(=O)NCc2ccc(OCC(F)F)c(C)c2)ccn1 [Example 988, 2-acetamido-N-(4-(2,2-difluoroethoxy)-3-methylbenzyl)isonicotinamide] has a pIC50 greater than 6.00.
CCC(=O)Nc1cc(C(=O)NCc2ccc(OCC(F)F)c(C)c2)ccn1 [Example 989, N-(4-(2,2-difluoroethoxy)-3-methylbenzyl)-2-propionamidoisonicotinamide] gave a pIC50 greater than 6.00.
Cc1cc(CNC(=O)c2ccnc(NC(=O)C3CC3)c2)ccc1OCC(F)F [Example 990, 2-(cyclopropanecarboxamido)-N-(4-(2,2-difluoroethoxy)-3-methylbenzyl)isonicotinamide] showed a pIC50 greater than 6.00.
With Cc1cc(CNC(=O)c2ccnc(NC(=O)C(C)C)c2)ccc1OCC(F)F [Example 991, N-(4-(2,2-difluoroethoxy)-3-methylbenzyl)-2-isobutyramidoisonicotinamide] the pIC50 was greater than 6.00.
Work on Cc1cc(CNC(=O)c2ccnc(NC(=O)C3CC3)n2)ccc1OCC(F)F [Example 992, 2-(cyclopropanecarboxamido)-N-(4-(2,2-difluoroethoxy)-3-methylbenzyl)pyrimidine-4-carboxamide] yielded a pIC50 greater than 6.00.
Compound CC(=O)Nc1cc(C(=O)NCc2ccc(OCC(F)F)c(C)c2)cc(C)n1 [Example 993, 2-acetamido-N-(4-(2,2-difluoroethoxy)-3-methylbenzyl)-6-methylisonicotinamide] has a pIC50 greater than 6.00.
Cc1cc(C(=O)NCc2ccc(OCC(F)F)c(C)c2)cc(NC(=O)C(C)C)n1 [Example 994, N-(4-(2,2-difluoroethoxy)-3-methylbenzyl)-2-isobutyramido-6-methylisonicotinamide] showed a pIC50 greater than 6.00.
For Cc1cc(C(=O)NCc2ccc(OCC(F)F)c(C)c2)nc(NC(=O)C2CC2)n1 [Example 996, 2-(cyclopropanecarboxamido)-N-(4-(2,2-difluoroethoxy)-3-methylbenzyl)-6-methylpyrimidine-4-carboxamide], the pIC50 was greater than 6.00.
Work on CCC(=O)Nc1cc(C(=O)NCc2ccc(OCC(F)F)c(Cl)c2)ccn1 [Example 998, N-(3-chloro-4-(2,2-difluoroethoxy)benzyl)-2-propionamidoisonicotinamide] yielded a pIC50 greater than 6.00.
In the case of Cc1cc(C(=O)NCc2ccc(OCC(F)F)c(Cl)c2)cc(NC(=O)C(C)C)n1 [Example 1003, N-(3-chloro-4-(2,2-difluoroethoxy)benzyl)-2-isobutyramido-6-methylisonicotinamide], the pIC50 was greater than 6.00.
For CC(=O)Nc1cc(C(=O)NCc2ccc(OCC(F)F)cc2C)cc(C)n1 [Example 1007, 2-acetamido-N-(4-(2,2-difluoroethoxy)-2-methylbenzyl)-6-methylisonicotinamide], the pIC50 was greater than 6.00.
For Cc1cc(C(=O)NCc2ccc(OCC(F)F)cc2C)cc(NC(=O)C(C)C)n1 [Example 1008, N-(4-(2,2-difluoroethoxy)-2-methylbenzyl)-2-isobutyramido-6-methylisonicotinamide], the pIC50 was greater than 6.00.
For CCC(=O)Nc1cc(C(=O)NCc2cccc(C(F)(F)F)c2F)ccn1 [Example 1012, N-(2-fluoro-3-(trifluoromethyl)benzyl)-2-propionamidoisonicotinamide], the pIC50 was greater than 6.00.
For CCC(=O)Nc1cc(C(=O)NCc2cccc(C(F)(F)F)c2OC)ccn1 [Example 1017, N-(2-methoxy-3-(trifluoromethyl)benzyl)-2-propionamidoisonicotinamide], the pIC50 was greater than 6.00.
In the case of Cc1cc(C(=O)NCc2ccc(OCC(F)F)cc2Cl)cc(NC(=O)C(C)C)n1 [Example 1049, N-(2-chloro-4-(2,2-difluoroethoxy)benzyl)-2-isobutyramido-6-methylisonicotinamide], the pIC50 was greater than 6.00.
Compound COc1cc(CNC(=O)c2ccnc(NC(C)=O)c2)ccc1OCC(F)(F)F [Example 1078, 2-acetamido-N-(3-methoxy-4-(2,2,2-trifluoroethoxy)benzyl)isonicotinamide] has a pIC50 greater than 6.00.
CC(=O)Nc1cc(C(=O)NCc2cnc(OCC(F)F)c(C3CC3)c2)cc(C)n1 [Example 1082, 2-acetamido-N-((5-cyclopropyl-6-(2,2-difluoroethoxy)pyridin-3-yl)methyl)-6-methylisonicotinamide] showed a pIC50 greater than 6.00.
Work on COc1cc(CNC(=O)c2ccnc(NC(=O)C3CC3)c2)ccc1OCC(F)(F)F [Example 1102, 2-(cyclopropanecarboxamido)-N-(3-methoxy-4-(2,2,2-trifluoroethoxy)benzyl)isonicotinamide] yielded a pIC50 greater than 6.00.
Work on Cc1cc(C(=O)NCc2cccc(OCC(F)F)c2C)cc(NC(=O)C(C)C)n1 [Example 1131, N-(3-(2,2-difluoroethoxy)-2-methylbenzyl)-2-isobutyramido-6-methylisonicotinamide] yielded a pIC50 greater than 6.00.
With Cc1cc(C(=O)NCc2cnc(OCC(F)(F)F)c(Cl)c2)nc(NC(=O)C2CC2)n1 [Example 1147, N-((5-chloro-6(2,2,2-trifluoroethoxy)pyridin-3-yl)methyl)-2-(cyclopropanecarboxamido)-6-methylpyrimidine-4-carboxamide] the pIC50 was greater than 6.00.
In the case of CCC(=O)Nc1cc(C(=O)NCc2ccc(OCC(F)F)nc2OC)ccn1 [Example 1152, N-((6-(2,2-difluoroethoxy)-2-methoxypyridin-3-yl)methyl)-2-propionamidoisonicotinamide], the pIC50 was greater than 6.00.
COc1nc(OCC(F)F)ccc1CNC(=O)c1ccnc(NC(=O)C2CC2)c1 [Example 1153, 2-(cyclopropanecarboxamido)-N-((6-(2,2-difluoroethoxy)-2-methoxypyridin-3-yl)methyl)isonicotinamide] showed a pIC50 greater than 6.00.
With COc1nc(OCC(F)F)ccc1CNC(=O)c1ccnc(NC(=O)C(C)C)c1 [Example 1154, N-((6-(2,2-difluoroethoxy)-2-methoxypyridin-3-yl)methyl)-2-isobutyramidoisonicotinamide] the pIC50 was greater than 6.00.
In the case of COc1nc(OCC(F)F)ccc1CNC(=O)c1cc(C)nc(NC(C)=O)c1 [Example 1156, 2-acetamido-N-((6-(2,2-difluoroethoxy)-2-methoxypyridin-3-yl)methyl)-6-methylisonicotinamide], the pIC50 was greater than 6.00.
Work on COc1nc(OCC(F)F)ccc1CNC(=O)c1cc(C)nc(NC(=O)C(C)C)c1 [Example 1157, N-((6-(2,2-difluoroethoxy)-2-methoxypyridin-3-yl)methyl)-2-isobutyramido-6-methylisonicotinamide] yielded a pIC50 greater than 6.00.
